How the values were obtained:
[1] = system: Methicillin Resistant Staphylococcus aureus strain USA 200; test: Minimum inhibitory concentration (MIC), CLSI broth micro-dilution, S. aureus; type: cell-based; details: Staphylococcus aureus, MRSA / USA200; Table 6; MRSA USA 200; cation adjusted Mueller Hinton Broth + 0.002% Tween-80; 35° C., 22 hours
Summary of the method: (§1)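 Colonies grown 20 h at 35° C on Trypticase Soy agar (MRSA) or Luria agar (E. coli) were suspended in cation-adjusted Mueller Hinton broth with 0.002% Tween-80. Suspensions were added at OD600 0.0005 to 10-point twofold compound dilutions, then incubated 22 h at 35° C.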

[2] = system: Escherichia coli ATCC 25922; test: Minimum inhibitory concentration (MIC), CLSI broth micro-dilution, E. coli; type: cell-based; details: Escherichia coli, ATCC25922, 22 h, Table 6, cation adjusted Mueller Hinton Broth + 0.002% Tween-80, 35° C.
Summary of the method: as §1

Row | SMILES | MIC [1] [µM] | MIC [2] [µM]
1 | Cc1nc(-c2ccc(C(C)(C)C)cc2)nc(C)c1C(=O)NCC(=O)N[C@@H](CCN)C(=O)N(C)[C@@H]1C(=O)N[C@@H](C)C(=O)N[C@H](C(=O)NCC#N)Cc2ccc(OCCN)c(c2)-c2cc1ccc2OCCN (racemic) [Compound 470, rac-(8S,11S,14S)-3,18-bis(2-aminoethoxy)-N-(cyanomethyl)-11-methyl-14-[methyl-[rac-(2S)-4-amino-2-[[2-[[2-(4-tert-butylphenyl)-4,6-dimethyl-pyrimidine-5-carbonyl]amino]acetyl]amino]butanoyl]amino]-10,13-dioxo-9,12-diazatricyclo[13.3.1.12,6]icosa-1(18),2(20),3,5,15(19),16-hexaene-8-carboxamide] | 0.047 | 4
2 | CCCCCCc1ccc(C(=O)N[C@@H](CCN)C(=O)N[C@@H]2C(=O)N[C@@H](C)C(=O)N[C@H](C(=O)NCC#N)Cc3ccc(O)c(c3)-c3cc2ccc3O)c(C)c1 (racemic) [Compound 471, rac-(8S,11S,14S)-N-(cyanomethyl)-3,18-dihydroxy-11-methyl-10,13-dioxo-14-[[rac-(2S)-4-amino-2-[(4-hexyl-2-methyl-benzoyl)amino]butanoyl]amino]-9,12-diazatricyclo[13.3.1.12,6]icosa-1(18),2(20),3,5,15(19),16-hexaene-8-carboxamide] | 0.04 | 5.1

Continued by falling MIC [1], values first:

Row | MIC [1] [µM] | MIC [2] [µM] | SMILES
3 | 0.19 | 8 | Cc1nc(-c2ccc(C(C)(C)C)cc2)nc(C)c1C(=O)N[C@H](CO)C(=O)N[C@@H](CCN)C(=O)N(C)[C@@H]1C(=O)N[C@@H](C)C(=O)N[C@H](C(=O)NCC#N)Cc2ccc(OCCN)c(c2)-c2cc1ccc2OCCN (racemic) [Compound 467, rac-(8S,11S,14S)-3,18-bis(2-aminoethoxy)-N-(cyanomethyl)-11-methyl-14-[methyl-[rac-(2S)-4-amino-2-[[rac-(2R)-2-[[2-(4-tert-butylphenyl)-4,6-dimethyl-pyrimidine-5-carbonyl]amino]-3-hydroxy-propanoyl]amino]butanoyl]amino]-10,13-dioxo-9,12-diazatricyclo[13.3.1.12,6]icosa-1(18),2(20),3,5,15(19),16-hexaene-8-carboxamide]
4 | 0.13 | 6 | CCC[C@H](NC(=O)c1c(C)nc(-c2ccc(C(C)(C)C)cc2)nc1C)C(=O)N[C@@H](CCN)C(=O)N(C)[C@@H]1C(=O)N[C@@H](C)C(=O)N[C@H](C(=O)NCC#N)Cc2ccc(OCCN)c(c2)-c2cc1ccc2OCCN (racemic) [Compound 469, rac-(8S,11S,14S)-3,18-bis(2-aminoethoxy)-N-(cyanomethyl)-11-methyl-14-[methyl-[rac-(2S)-4-amino-2-[[rac-(2S)-2-[[2-(4-tert-butylphenyl)-4,6-dimethyl-pyrimidine-5-carbonyl]amino]pentanoyl]amino]butanoyl]amino]-10,13-dioxo-9,12-diazatricyclo[13.3.1.12,6]icosa-1(18),2(20),3,5,15(19),16-hexaene-8-carboxamide]
5 | 0.047 | 4 | Cc1nc(-c2ccc(C(C)(C)C)cc2)nc(C)c1C(=O)N[C@@H](CO)C(=O)N[C@@H](CCN)C(=O)N(C)[C@@H]1C(=O)N[C@@H](C)C(=O)N[C@H](C(=O)NCC#N)Cc2ccc(OCCN)c(c2)-c2cc1ccc2OCCN (racemic) [Compound 465, rac-(8S,11S,14S)-3,18-bis(2-aminoethoxy)-N-(cyanomethyl)-11-methyl-14-[methyl-[rac-(2S)-4-amino-2-[[rac-(2S)-2-[[2-(4-tert-butylphenyl)-4,6-dimethyl-pyrimidine-5-carbonyl]amino]-3-hydroxy-propanoyl]amino]butanoyl]amino]-10,13-dioxo-9,12-diazatricyclo[13.3.1.12,6]icosa-1(18),2(20),3,5,15(19),16-hexaene-8-carboxamide]
